Read-outs that look alike come from different tables or passages of the source. Numbered stars: 1 amine (or outer) side, 2 acyl side, 3 side chain; on linkers, the order of the positions; unused ones are H or OH. Square brackets hold non-standard residues; d marks the D form. Side chains are listed from the residue outwards. Peptide text beside a SMILES is read from it. * marks the point of attachment. γGlu = O=C(O)[C@H](CCC(=O)[*:2])N[*:1]; αMeF = C[C@](N)(Cc1ccccc1)C(=O)O; αMeK = C[C@](N)(CCCCN)C(=O)O; Lauroyl = CCCCCCCCCCCC(=O)*; AEEA = NCCOCCOCC(=O)O; Aib = CC(C)(N)C(=O)O
Columns and labels:
Type in all cases: cell-based
[1] = target: T1, human glucose-dependent insulinotropic peptide receptor (GIPR) (Homo sapiens, UniProt P48546); test: cAMP assay, human GIPR cells; details: cAMP assay
T1 construct: expressed in transfected cells
T1 sequence (P48546 22-466): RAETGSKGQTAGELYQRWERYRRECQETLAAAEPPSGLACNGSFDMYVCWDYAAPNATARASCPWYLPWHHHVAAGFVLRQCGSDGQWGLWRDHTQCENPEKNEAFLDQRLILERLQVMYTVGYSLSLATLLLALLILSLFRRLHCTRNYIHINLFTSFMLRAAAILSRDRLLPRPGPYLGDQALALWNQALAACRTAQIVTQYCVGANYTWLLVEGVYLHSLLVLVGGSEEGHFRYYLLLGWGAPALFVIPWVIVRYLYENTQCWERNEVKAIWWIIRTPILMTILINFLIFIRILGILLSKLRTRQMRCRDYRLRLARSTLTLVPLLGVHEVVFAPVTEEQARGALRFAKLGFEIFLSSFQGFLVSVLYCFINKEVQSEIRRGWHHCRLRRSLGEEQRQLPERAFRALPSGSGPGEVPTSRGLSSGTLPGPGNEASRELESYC
Method: (§1) Sample dilutions are made in duplicate.
(§2) A frozen cryo-vial of cells expressing the receptor of interest is thawed rapidly in a water-bath, transferred to pre-warmed assay buffer and spun at 240×g for 5 minutes. Cells are re-suspended in assay buffer at a batch-dependent optimized concentration (e.g. hGCGR cells at 2×10^5 cells/ml, hGLP-1R and hGIPR cells at 1×10^5 cells/ml).
(§3) To this, 5 μL cell suspension is added and the plates incubated at room temperature for 30 minutes.
(§4) cAMP levels are measured using a commercially available cAMP dynamic 2 HTRF kit (Cisbio, Cat #62AM4PEJ), following the two step protocol as per manufacturer's recommendations. In brief; anti-cAMP cryptate (donor fluorophore) and cAMP-d2 (acceptor fluorophore) are made up separately by diluting each 1/20 in conjugate & lysis buffer provided in the kit. 5 μL anti-cAMP cryptate is added to wells of the assay plate, and 5 μL cAMP-d2 is added to wells except non-specific binding (NSB) wells, to which conjugate and lysis buffer are added. […] EC50 values of the synthetic peptides determined in cAMP assays are then determined.
(§5) Data is transformed to % Delta F as described in the manufacturer's guidelines and analyzed by 4-parameter logistic fit to determine EC50 values. […] To compare the balance of activities at the GLP-1R and GCGR between different peptides and across different conditions, these can be correlated, where the EC50's are related to those of comparator peptides.

[2] = target: T2, human glucagon receptor (GCGR) (Homo sapiens, UniProt P47871); test: cAMP assay, human GCGR cells; details: cAMP assay
T2 construct: expressed in transfected cells
Method: as §1, §2, §3, §4, §5

[3] = target: T3, human GLP-1 receptor (GLP-1R) (Homo sapiens, UniProt P43220); test: cAMP assay, human GLP-1R cells; details: bis-lipidated peptides
T3 construct: expressed in transfected cells
Method: as §1, §2, §3, §4, §5

[4] = first determination (n1), read-out: Primary assay EC50 GIP-R (n1)
[5] = second determination (n2), read-out: Primary assay EC50 GIP-R (n2)
[6] = first determination (n1), read-out: Primary assay EC50 Gluc-R (n1)
[7] = second determination (n2), read-out: Primary assay EC50 Gluc-R (n2)
[8] = mean of n1 and n2, read-out: Primary assay EC50 Mean pM GLP-1R
[9] = replicate n1, read-out: Primary assay EC50 GLP-1R n1
[10] = replicate n2, read-out: Primary assay EC50 GLP-1R n2

T2 sequence (P47871 26-477): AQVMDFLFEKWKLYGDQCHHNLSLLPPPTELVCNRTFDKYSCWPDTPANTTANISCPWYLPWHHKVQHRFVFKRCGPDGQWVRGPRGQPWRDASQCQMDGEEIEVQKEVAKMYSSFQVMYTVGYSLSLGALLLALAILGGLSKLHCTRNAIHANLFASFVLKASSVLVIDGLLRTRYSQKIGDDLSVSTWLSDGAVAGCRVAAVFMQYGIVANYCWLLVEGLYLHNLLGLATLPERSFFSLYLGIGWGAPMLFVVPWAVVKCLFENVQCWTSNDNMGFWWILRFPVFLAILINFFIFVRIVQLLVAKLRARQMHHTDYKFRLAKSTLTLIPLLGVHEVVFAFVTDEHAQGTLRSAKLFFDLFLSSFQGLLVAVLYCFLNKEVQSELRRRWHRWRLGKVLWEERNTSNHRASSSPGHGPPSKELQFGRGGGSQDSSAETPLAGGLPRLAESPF
T3 sequence (P43220 24-463): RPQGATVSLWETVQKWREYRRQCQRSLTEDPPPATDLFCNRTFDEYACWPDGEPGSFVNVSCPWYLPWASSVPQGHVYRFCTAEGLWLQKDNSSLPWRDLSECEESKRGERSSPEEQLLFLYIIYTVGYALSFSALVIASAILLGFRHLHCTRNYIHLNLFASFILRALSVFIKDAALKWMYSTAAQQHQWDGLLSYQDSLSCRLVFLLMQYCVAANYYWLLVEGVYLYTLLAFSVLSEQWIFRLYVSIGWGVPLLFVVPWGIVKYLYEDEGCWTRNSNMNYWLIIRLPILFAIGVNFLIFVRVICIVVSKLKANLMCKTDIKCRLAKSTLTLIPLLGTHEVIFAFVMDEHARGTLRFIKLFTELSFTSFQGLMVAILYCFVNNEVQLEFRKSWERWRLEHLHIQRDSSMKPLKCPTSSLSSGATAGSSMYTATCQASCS

SMILES	EC50 [1, 4] [nM]	EC50 [1, 5] [nM]	EC50 [2, 6] [nM]	EC50 [2, 7] [nM]	EC50 [3, 8] [pM]	EC50 [3, 9] [pM]	EC50 [3, 10] [pM]
CC[C@H](C)[C@H](NC(=O)[C@](C)(Cc1ccccc1)NC(=O)[C@H](CCC(=O)O)NC(=O)[C@](C)(CCCCN)NC(=O)[C@H](C)NC(=O)[C@H](C)NC(=O)[C@H](CCC(=O)O)NC(=O)CNC(=O)[C@H](CCC(=O)O)NC(=O)[C@H](CC(C)C)NC(=O)[C@](C)(Cc1ccccc1)NC(=O)[C@H](CO)NC(=O)[C@H](CO)NC(=O)[C@@H](NC(=O)[C@H](CCC(=O)O)NC(=O)[C@H](CO)NC(=O)[C@H](CO)NC(=O)[C@](C)(Cc1ccccc1)NC(=O)[C@H](CO)NC(=O)CNC(=O)[C@H](CCC(=O)O)NC(=O)C(C)(C)NC(=O)[C@@H](N)Cc1c[nH]cn1)C(C)C)C(=O)N[C@@H](C)C(=O)N[C@@](C)(Cc1ccccc1)C(=O)N[C@H](C(=O)N[C@H](C(=O)N[C@@](C)(CCCCN)C(=O)NCC(=O)NCC(N)=O)C(C)C)C(C)C [compound 9] (H-H[Aib]EGS[αMeF]SSEVSS[αMeF]LEGEAA[αMeK]E[αMeF]IA[αMeF]VV[αMeK]GG-NH2; N-terminus assumed)	≥ 29	≥ 29	≥ 29	≥ 29	–	–	–
CC[C@H](C)[C@H](NC(=O)[C@](C)(Cc1ccccc1)NC(=O)[C@H](CCC(=O)O)NC(=O)[C@](C)(CCCCN)NC(=O)[C@H](C)NC(=O)[C@H](C)NC(=O)[C@H](CCC(=O)O)NC(=O)CNC(=O)[C@H](CCC(=O)O)NC(=O)[C@@H](NC(=O)[C@](C)(Cc1ccccc1)NC(=O)[C@H](CO)NC(=O)[C@H](CO)NC(=O)[C@@H](NC(=O)[C@H](CC(=O)O)NC(=O)[C@H](CO)NC(=O)[C@@H](NC(=O)[C@](C)(Cc1ccccc1)NC(=O)[C@H](CO)NC(=O)CNC(=O)[C@H](CCC(=O)O)NC(=O)C(C)(C)NC(=O)[C@@H](N)Cc1c[nH]cn1)[C@@H](C)O)C(C)C)C(C)C)C(=O)N[C@@H](C)C(=O)N[C@@](C)(Cc1ccccc1)C(=O)N[C@H](C(=O)N[C@H](C(=O)N[C@@](C)(CCCCN)C(=O)NCC(=O)NCC(N)=O)C(C)C)C(C)C [compound 10] (H-H[Aib]EGS[αMeF]TSDVSS[αMeF]VEGEAA[αMeK]E[αMeF]IA[αMeF]VV[αMeK]GG-NH2; N-terminus assumed)	≥ 100	≥ 100	≥ 100	≥ 100	–	–	–
CC(C)[C@H](NC(=O)[C@H](CCC(=O)O)NC(=O)[C@H](CO)NC(=O)[C@H](CO)NC(=O)[C@](C)(Cc1ccccc1)NC(=O)[C@H](CO)NC(=O)CNC(=O)[C@H](CCC(=O)O)NC(=O)C(C)(C)NC(=O)[C@@H](N)Cc1c[nH]cn1)C(=O)N[C@@H](CO)C(=O)N[C@@H](CO)C(=O)N[C@@](C)(Cc1ccccc1)C(=O)N[C@H](C(=O)N[C@@H](CCC(=O)O)C(=O)NCC(=O)N[C@@H](CCC(=O)O)C(=O)N[C@@H](C)C(=O)N[C@@H](C)C(=O)N[C@@](C)(CCCCN)C(=O)N[C@@H](CCC(=O)O)C(=O)N[C@@](C)(Cc1ccccc1)C(=O)N[C@H](C(=O)N[C@@H](C)C(=O)N[C@@](C)(Cc1ccccc1)C(=O)N[C@H](C(=O)N[C@H](C(=O)N[C@@](C)(CCCCN)C(=O)NCC(=O)NCC(N)=O)C(C)C)C(C)C)C(C)C)C(C)C [compound 12] (H-H[Aib]EGS[αMeF]SSEVSS[αMeF]VEGEAA[αMeK]E[αMeF]VA[αMeF]VV[αMeK]GG-NH2)	45	45	10	13	–	–	–
CC[C@H](C)[C@H](NC(=O)[C@H](Cc1ccccc1)NC(=O)[C@H](CCC(=O)O)NC(=O)[C@H](CCCCN)NC(=O)[C@H](C)NC(=O)[C@H](C)NC(=O)[C@H](CCC(N)=O)NC(=O)CNC(=O)[C@H](CCC(=O)O)NC(=O)[C@H](CC(C)C)NC(=O)[C@H](Cc1ccc(O)cc1)NC(=O)[C@H](CO)NC(=O)[C@H](CO)NC(=O)[C@@H](NC(=O)[C@H](CC(=O)O)NC(=O)[C@](C)(CO)NC(=O)[C@@H](NC(=O)[C@H](Cc1ccccc1)NC(=O)[C@@H](NC(=O)CNC(=O)[C@H](CCC(=O)O)NC(=O)C(C)(C)NC(=O)[C@@H](N)Cc1c[nH]cn1)[C@@H](C)O)[C@@H](C)O)C(C)C)C(=O)N[C@@H](C)C(=O)N[C@@H](Cc1c[nH]c2ccccc12)C(=O)N[C@@H](CC(C)C)C(=O)N[C@H](C(=O)N[C@@H](CCCCN)C(=O)NCC(=O)N[C@@H](CCCNC(=N)N)C(N)=O)C(C)C [compound 19]	≥ 130	≥ 130	≥ 130	≥ 130	–	–	–
CC[C@H](C)[C@H](NC(=O)[C@H](Cc1ccccc1)NC(=O)[C@H](CCC(=O)O)NC(=O)[C@H](CCCCN)NC(=O)[C@H](C)NC(=O)[C@H](C)NC(=O)[C@H](CCC(N)=O)NC(=O)CNC(=O)[C@H](CCC(=O)O)NC(=O)[C@H](CC(C)C)NC(=O)[C@H](Cc1ccc(O)cc1)NC(=O)[C@H](CO)NC(=O)[C@](C)(CO)NC(=O)[C@@H](NC(=O)[C@H](CC(=O)O)NC(=O)[C@H](CO)NC(=O)[C@@H](NC(=O)[C@H](Cc1ccccc1)NC(=O)[C@@H](NC(=O)CNC(=O)[C@H](CCC(=O)O)NC(=O)C(C)(C)NC(=O)[C@@H](N)Cc1c[nH]cn1)[C@@H](C)O)[C@@H](C)O)C(C)C)C(=O)N[C@@H](C)C(=O)N[C@@H](Cc1c[nH]c2ccccc12)C(=O)N[C@@H](CC(C)C)C(=O)N[C@H](C(=O)N[C@@H](CCCCN)C(=O)NCC(=O)N[C@@H](CCCNC(=N)N)C(N)=O)C(C)C [compound 21]	≥ 340	≥ 340	≥ 340	≥ 340	–	–	–
CCCCCCCCCCCC(=O)N[C@@H](CCC(=O)NCCOCCOCC(=O)NCCOCCOCC(=O)NCCCC[C@H](NC(=O)[C@H](CC(=O)O)NC(=O)[C@H](CO)NC(=O)[C@@H](NC(=O)[C@](C)(Cc1ccccc1)NC(=O)[C@H](CO)NC(=O)CNC(=O)[C@H](CCC(=O)O)NC(=O)C(C)(C)NC(=O)[C@@H](N)Cc1c[nH]cn1)[C@@H](C)O)C(=O)N[C@@H](CO)C(=O)N[C@@H](CO)C(=O)N[C@@H](Cc1ccc(O)cc1)C(=O)N[C@@H](CC(C)C)C(=O)N[C@@H](CCC(=O)O)C(=O)NCC(=O)N[C@@H](CCC(=O)O)C(=O)N[C@@H](C)C(=O)N[C@@H](C)C(=O)N[C@@](C)(CCCCN)C(=O)N[C@@H](CCC(=O)O)C(=O)N[C@@H](Cc1ccccc1)C(=O)N[C@H](C(=O)N[C@@H](CCCCNC(=O)COCCOCCNC(=O)COCCOCCNC(=O)CC[C@H](NC(=O)CCCCCCCCCCC)C(=O)O)C(=O)N[C@@H](Cc1c[nH]c2ccccc12)C(=O)N[C@H](C(=O)N[C@H](C(=O)N[C@@H](CCC(=O)O)C(=O)NCC(=O)NCC(N)=O)C(C)C)C(C)C)[C@@H](C)CC)C(=O)O [compound 256] (H-H[Aib]EGS[αMeF]TSDK([AEEA-AEEA-γGlu-Lauroyl])SSYLEGEAA[αMeK]EFIK([AEEA-AEEA-γGlu-Lauroyl])WVVEGG-NH2)	–	–	–	–	7.5	9.46	5.57
CCCCCCCCCCCC(=O)N[C@@H](CCC(=O)NCCOCCOCC(=O)NCCOCCOCC(=O)NCCCC[C@H](NC(=O)[C@H](CC(=O)O)NC(=O)[C@H](CO)NC(=O)[C@@H](NC(=O)[C@](C)(Cc1ccccc1)NC(=O)[C@H](CO)NC(=O)CNC(=O)[C@H](CCC(=O)O)NC(=O)C(C)(C)NC(=O)[C@@H](N)Cc1c[nH]cn1)[C@@H](C)O)C(=O)N[C@@H](CO)C(=O)N[C@@H](CO)C(=O)N[C@@H](Cc1ccc(O)cc1)C(=O)N[C@@H](CC(C)C)C(=O)N[C@@H](CCC(=O)O)C(=O)NCC(=O)N[C@@H](CCC(=O)O)C(=O)N[C@@H](C)C(=O)N[C@@H](C)C(=O)N[C@@](C)(CCCCN)C(=O)N[C@@H](CCC(=O)O)C(=O)N[C@@H](Cc1ccccc1)C(=O)N[C@H](C(=O)N[C@@H](C)C(=O)N[C@@H](Cc1c[nH]c2ccccc12)C(=O)N[C@@H](CCCCNC(=O)COCCOCCNC(=O)COCCOCCNC(=O)CC[C@H](NC(=O)CCCCCCCCCCC)C(=O)O)C(=O)N[C@H](C(=O)N[C@@H](CCC(=O)O)C(=O)NCC(=O)NCC(N)=O)C(C)C)[C@@H](C)CC)C(=O)O [compound 258] (H-H[Aib]EGS[αMeF]TSDK([AEEA-AEEA-γGlu-Lauroyl])SSYLEGEAA[αMeK]EFIAWK([AEEA-AEEA-γGlu-Lauroyl])VEGG-NH2; N-terminus assumed)	–	–	–	–	92.3	59.6	125

— patent US10414811B2, “Protease-resistant lipidated GLP-1 analogs” (MEDIMMUNE LIMITED, priority 2015, dated 2019)
